Data published in patent US6632921B1, “Seryl-lysyl-based peptide and peptidomimetic inhibitors of N-myristoyl transferase as anti-infective agents” (G. D Searle & Co, priority 1995, dated 2003).
Where two headings read alike, the source gives them in different places. Non-standard residues stand in square brackets, D forms with d. Residues, ends and D or L forms follow the SMILES beside them. Cha = N[C@@H](CC1CCCCC1)C(=O)O; Aun = NCCCCCCCCCCC(=O)O

Experiments:
Candida albicans NMT = biological target: T1, Candida albicans NMT (Candida albicans, UniProt P30418); assay: NMT enzyme inhibition assay (radiochemical HPLC end-point), Candida NMT; format: biochemical; details: for IC50: Table V, read-out: IC50 caNMT
T1 construct: made in house; host or cells: E. coli
T1 sequence (P30418 1-451): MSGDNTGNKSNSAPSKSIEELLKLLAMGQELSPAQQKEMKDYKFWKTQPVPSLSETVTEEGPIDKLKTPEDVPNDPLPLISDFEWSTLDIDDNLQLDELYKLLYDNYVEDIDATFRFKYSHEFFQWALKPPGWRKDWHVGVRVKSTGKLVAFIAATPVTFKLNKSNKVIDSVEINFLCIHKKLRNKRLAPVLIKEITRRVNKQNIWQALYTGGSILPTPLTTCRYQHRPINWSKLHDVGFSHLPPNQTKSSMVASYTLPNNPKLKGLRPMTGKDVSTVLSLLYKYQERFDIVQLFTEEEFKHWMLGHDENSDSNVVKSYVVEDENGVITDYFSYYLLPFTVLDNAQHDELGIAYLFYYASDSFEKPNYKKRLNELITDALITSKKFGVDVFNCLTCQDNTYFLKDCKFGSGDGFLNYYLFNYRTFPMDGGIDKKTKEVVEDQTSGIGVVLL
Method: Recombinant Candida albicans and human NMTs were expressed and purified from E. coli using previously described protocols. [D. A. Towler et al, Proc. Natl. Acad. Sci. USA, 84, 2707-2712 (1987); R. C. Weigand et al, J. Biol. Chem., 267, 8591-8598 (1992); R. J. Duronio et al, Proc. Natl. Acad. Sci. USA, 89, 4129-4133 (1992)] The ability of compounds to inhibit Candida NMT enzymatic activity was assessed using a radiochemical HPLC end-point assay as described previously for Saccharomyces cerevisiae and human NMTs. [D. Towler et al, Proc. Natl. Acad. Sci. USA, 83, 2812-2816 (1986); W. J. Rocque et al, J. Biol. Chem., 268, 9964-9971 (1991)] The donor substrate [^3H]myristoyl-coenzyme A was enzymatically synthesized from [^3H]myristic acid (50 Ci/mmol, Amersham, Arlington Heights, Ill.) and coenzyme A (Fluka Chemical Corp., Ronkonkoma, N.Y.), and purified as described previously. [W. J. Rocque et al, J. Biol. Chem., 268, 9964-9971 (1991)] The peptide acceptor substrate GNAASARR-NH2 was prepared by solid-phase peptide synthesis using the t-Boc amino acid methodology, followed by HF treatment and reverse-phase HPLC purification. Inhibitor stock solutions were prepared at 22 mM in DMSO; the final concentration of DMSO in each assay was 0.5% (v/v). Inhibition assays were carried out by combining variable amounts of inhibitor or buffer with […] of [^3H]myristoyl-coenzyme A (1 μCi, 9.09 Ci/mmol) and 2.2 nmoles of GNAASARR-NH2 in a total volume of 60 μL of 0.2 M N-[2-hydroxy-ethyl]piperazine-N′-[2-ethanesulfonic acid], pH 7.4, 2 mM DL-dithiothreitol, 0.2 mM ethylene glycol-bis-(β-aminoethyl ether) N,N,N′,N′-tetraacetic acid, and initiating the reaction by the addition of 50 μL of a Candida NMT solution (7-12 ng/50 μL). Assays with human NMT were identical except that they used 60-75 ng/50 μL of enzyme solution and 0.22 nmoles of GNAASARR-NH2. The reaction was quenched after 10 minutes at 24° C. by the addition of ice-cold MeOH, and the reaction products were separated and measured using C4 reverse-phase HPLC (Vydac 214TP10415; Separations Group, Hesperia, Calif.) and in-line scintillation counting using a Radiomatic A250 (Packard Instruments, Downers Grove, Ill.) and Ecolite(+) (ICN Biomedical, Costa Mesa, Calif.) as the scintillant. Selectivity was determined by calculating the ratio of the IC50 against human NMT to the IC50 against C. albicans NMT.

[1] = tested on: Candida albicans, strain B311; assay: Antifungal susceptibility testing, microdilution broth, pH 5.4/30° C./YNB; format: cell-based
Method: Antifungal Screens were set up initially against Candida albicans, strain B311, and Cryotococcus neoformans, strain L210425. Both pathogens, (originally from the stock culture collection, Medical mycology research center, Washington university-Barnes hospital), were obtained from Dr.Kobayashi, Prof.of infectious diseases, Washington University, St.Louis, Mo.
All cultures are maintained at 30° C. on Sabouraud's dextrose agar slants and subcultured at monthly intervals to fresh medium. All inocula for susceptibility testing are prepared in yeast nitogen base(YNB, Difco) broth.
A loopful of growth from Sabouraud dextrose agar slant is inoculated into 4 ml of YNB broth media and incubated at 30° C. overnight (18-24 hrs) with constant agitation (Gyratory Shaker, New Brunswick Scientific). Prior to setting up susceptibility testing, the organisms are counted in a hemocytometer, and diluted as needed into assay media.
1) (Assay at DH 5.4/30° C. Incubation/YNB Media).
Antifungal assays were carried out initially by a modification of the method published by Jones, et. al; (1), and communicated to Searle by Dr. Kobayashi, Washington University. [R. N. Jones et al, Manual of Clinical Microbiology, 4th ed., (1985)]
The antifungal susceptibility testing consists of a microdilution broth procedure performed in 96 well microtiter plates (Costar, cat#3799). Briefly, test compounds from a 20 mM stock solution in DMSO are diluted into sterile, deionized water (final DMSO concentration not exceeding 1%), to yield 2× the desired concentration (100 uM, 10 uM and 1 uM for an initial screen, or a selected concentration range in serial 2 fold dilutions for EC50 determination). One hundred microliters (100 ul) of each concentration is dispensed into triplicate wells of a 96 well microtiter plate. Appropriate dilutions of a suspension of C.albicans (1×10^6 cells/ml) in 2× YNB is distributed into each of the wells, including growth control wells containing no test compound as well as control wells with 0.5% DMSO. Amphotericin B at 0.05, 1 and 5 ug/ml is included in each assay plate as a positive control. The plates are incubated at 30° C. and cell growth is scored by reading the absorbance at 590 nm on an Elisa plate reader(Dynatech, MR.5000).

[2] = read-out: % inhibition of caNMT
[3] = B311, 24 h, pH 5.4, read-out: caEC50 24 hours
[4] = B311, 24 hours, Table V (values agree with pH 5.4 assay), read-out: caEC50 24 hours

With `Cc1nccn1CCCCc1ccc(CC(=O)N[C@@H](CO)C(=O)N[C@@H](CCCCN)C(=O)N[C@@H](C)C(=O)O)cc1` [Example 5, L-alanine, N-[N^2-[N-[[4-[4-(2-methyl-1H-imidazol-1-yl)butyl]phenyl]acetyl]-L-seryl]-L-lysyl]-, bis-trifluoroacetate] the inhibition at 10 µM (Candida albicans NMT; [2]) was 27% and the EC50 [1, 3] was 68 µM.

`Cc1nccn1CCCCc1ccc(CC(=O)N[C@@H](CO)C(=O)N[C@@H](CCCCN)C(=O)N[C@@H](CC(C)C)C(=O)O)cc1` [Example 8, L-Leucine, N-[N^2-[N-[[4-[4-(2-Methyl-1H-imidazol-1-yl)butyl]phenyl]acetyl]-L-seryl]-L-lysyl]-, bis-trifluoroacetate] was tested, and the inhibition at 10 µM (Candida albicans NMT; [2]) was 78% and the EC50 [1, 3] was over 100 µM.

`CC[C@H](C)[C@H](NC(=O)[C@H](CCCCN)NC(=O)[C@H](CO)NC(=O)Cc1ccc(CCCCn2ccnc2C)cc1)C(=O)O` [Example 7, L-iso-leucine, N-[N^2-[N-[[4-[4-(2-methyl-1H-imidazol-1-yl)butyl]phenyl]acetyl]-L-seryl]-L-lysyl]-, bis-trifluoroacetate] was tested, and the IC50 (Candida albicans NMT) was 100 µM and the EC50 [1, 4] was 97 µM.

In the case of `NCCCCCCCCCCC(=O)N[C@@H](CO)C(=O)N[C@@H](CCCCN)C(=O)N[C@@H](CC1CCCCC1)C(=O)O` [Example 3, L-Alanine, 3-cyclohexyl-N-[[(11-amino-undecanoyl)-L-seryl]-L-lysyl]-, bis-trifluoroacetate] (H-[Aun]SK[Cha]-OH), the inhibition at 11 µM (Candida albicans NMT; [2]) is reported as 80% and the EC50 [1, 3] is reported as 33 µM.

In the case of `Cc1nccn1CCCCc1ccc(CC(=O)N[C@@H](CO)C(=O)N[C@@H](CCCCN)C(=O)N[C@H](CC2CCCCC2)C(=O)O)cc1` [Example 11, D-alanine, 3-cyclohexyl-N-[N^2-[N-[[4-[4-(2-methyl-1H-imidazol-1-yl)butyl]phenyl]acetyl]-L-seryl]-L-lysyl]-, bis-trifluoroacetate], the IC50 (Candida albicans NMT) is reported as 18 µM and the EC50 [1, 3] is reported as over 100 µM.

In the case of `CC(C)C[C@H](NC(=O)[C@H](CCCCN)NC(=O)[C@H](CO)NC(=O)CCCCCCCCCCN)C(=O)O` [Example 4, L-leucine, N-[[(11-amino-undecanoyl)-L-seryl]-L-lysyl]-, bis-trifluoroacetate] (H-[Aun]SKL-OH), the IC50 (Candida albicans NMT) is reported as 6.7 µM and the EC50 [1, 3] is reported as 63 µM.

With `Cc1nccn1CCCCc1ccc(CC(=O)N[C@@H](CO)C(=O)N[C@@H](CCCCN)C(=O)NC(CC(=O)O)C2CCCCCCC2)cc1` (mixture of isomers) [Example 10, Lysinamide, N-[1-Cyclooctyl-2-carboxyethyl]-N^2-[N-[[4-[4-(2-methyl-1H-imidazol-1-yl)butyl]phenyl]acetyl]-L-seryl]-, ±, bis-trifluoroacetate] the inhibition at 10 µM (Candida albicans NMT; @ 10 μM, read-out: % inhibition of caNMT) was 40% and the EC50 [1, 4] was over 100 µM.

Molecule `Cc1nccn1CCCCc1ccc(CC(=O)N[C@@H](CO)C(=O)N[C@@H](CCCCN)C(=O)N[C@@H](Cc2ccccc2)C(=O)O)cc1` [Example 6, L-Alanine, 3-phenyl-N-[N^2-[N-[[4-[4-(2-methyl-1H-imidazol-1-yl)butyl]phenyl]acetyl]-L-seryl]-L-lysyl]-, bis-trifluoroacetate] has an inhibition at 10 µM (Candida albicans NMT; [2]) of 36% and an EC50 [1, 3] of 80 µM.

In the case of `Cc1nccn1CCCCc1ccc(CC(=O)N[C@@H](CO)C(=O)N[C@@H](CCCCN)C(=O)NC(CC(=O)O)C2CCCCC2)cc1` (mixture of isomers) [Example 9, Lysinamide, N-[1-Cyclohexyl-2-carboxyethyl]-N^2-[N-[[4-[4-(2-methyl-1H-imidazol-1-yl)butyl]phenyl]acetyl]-L-seryl]-, ±, bis-trifluoroacetate], the IC50 (Candida albicans NMT) is reported as 6 µM and the EC50 [1, 4] is reported as over 100 µM.
